Some test systems named below: HCC-2998 colon; CCRF-CEM leukemia; MDA-MB-435; OVCAR-3 ovarian; SK-OV-3 ovarian; SK-MEL-5 melanoma; M14 melanoma; HCT-15 colon; TK-10 renal; BT-549 breast.
Holding throughout (test): NCI-60 cell line screen, 48 h

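All cell lines were grown in 96-well plates and treated with compound for 48 hours. GI50: concentration for 50% inhibition of growth. TGI: concentration producing complete growth inhibition.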 Some results are limits rather than exact numbers.

As to `Clc1ccc(C2CC(c3cccc(Nc4ccncc4)c3)=NN2c2cc(Cl)cc(Cl)c2)cc1` (stereo not given), the GI50 was 1560 nM in the assay on HCC-2998 colon; 3.52 µM in the assay on CCRF-CEM leukemia; 1710 nM in the assay with MDA-MB-435; 1840 nM in the assay on OVCAR-3 ovarian; 1890 nM with SK-OV-3 ovarian; 1830 nM with SK-MEL-5 melanoma. Besides, the GI50 was 1810 nM in the assay on M14 melanoma, 1770 nM in the assay on HCT-15 colon, 1930 nM in the assay on TK-10 renal and 1850 nM in the assay on BT-549 breast. Besides, the TGI with HCC-2998 colon is 3.04 µM; in the assay on CCRF-CEM leukemia, more than 100 µM; in the assay on MDA-MB-435, 3.16 µM; in the assay with OVCAR-3 ovarian, 3.41 µM; in the assay with SK-OV-3 ovarian, 3.83 µM; with SK-MEL-5 melanoma it was 3.38 µM. Besides, the TGI was 3.9 µM in the assay on M14 melanoma, 3.45 µM in the assay on HCT-15 colon, 3.7 µM in the assay with TK-10 renal and 3.57 µM in the assay with BT-549 breast.

The record behind these values is PubChem BioAssay (NCI).
